Laboratory results from patent publication US20070213359A1 (ACADIA Pharmaceuticals Inc., priority 2005, published 2007).
Where two headings read alike, the source gives them in different places.

Biological target: Ghrelin receptor (Homo sapiens, UniProt Q92847)
Assay: Receptor Selection and Amplification Technology (R-SAT) assay
Format: cell-based
Design: expressed in transfected cells; host or cells: NIH3T3
Settings: for IC50: negative logarithm of ligand concentration causing 50% inhibition of constitutive receptor response, transfected NIH3T3 cells, '—' not defined (nd used separately), read-out: RSAT pIC50 (converted); for Emax: read-out: RSAT Eff(%)
[1] = percent inhibition at saturating ligand, normalized to reference ligand Substance P analog = 100%

Ghrelin receptor, sequence (Q92847 whole entry): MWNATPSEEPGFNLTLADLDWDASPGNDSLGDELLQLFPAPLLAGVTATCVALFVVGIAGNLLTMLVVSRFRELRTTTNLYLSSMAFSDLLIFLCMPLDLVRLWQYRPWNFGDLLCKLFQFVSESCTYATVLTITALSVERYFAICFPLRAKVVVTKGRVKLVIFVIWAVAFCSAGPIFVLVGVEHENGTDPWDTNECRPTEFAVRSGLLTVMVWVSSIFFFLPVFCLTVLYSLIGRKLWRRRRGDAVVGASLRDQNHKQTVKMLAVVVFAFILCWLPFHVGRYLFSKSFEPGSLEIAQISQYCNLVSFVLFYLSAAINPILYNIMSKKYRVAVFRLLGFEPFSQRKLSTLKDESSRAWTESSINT

Structure (SMILES) | IC50 [µM] | Emax [1] [%] | Emax [%]
CC(C)CC(=O)c1cn(CCCN2CCC(Oc3ccccc3Cl)CC2)c2ccccc12 | 1.58 | 96 | –
COc1ccccc1C1CCN(CCCn2cc(C(=O)C(F)(F)F)c3ccccc32)CC1 | 1.58 | 82 | –
CCCCC1CCN(CC(C)Cn2c(=O)sc3ccccc32)CC1 (stereo not shown) | 2 | 84 | –
CCCCC1CCN(CC(C)Cn2cc(C(C)=O)c3ccccc32)CC1 (stereo not shown) | 2 | 76 | –
COc1ccccc1C1CCN(CCCCn2cc(C(C)=O)c3ccccc32)CC1 | 2 | 58 | –
CC(=O)c1cn(CCCCN2CCN(C(C)c3ccccc3)CC2)c2ccccc12 (stereo not shown) | 2 | 69 | –
O=C(c1cn(CCCN2CCC(Oc3ccccc3Cl)CC2)c2ccccc12)C(F)(F)F | 2 | 81 | –
COc1ccc2c(c1)c(C(C)=O)cn2CCCN1CCC(c2ccccc2OC)CC1 | 2 | 66 | –
CC(=O)CCc1cn(CCCN2CCN(C(C)c3ccccc3)CC2)c2ccccc12 (stereo not shown) | 2 | 46 | –
CC(C)CC(=O)c1cn(CCCN2CCC(C(=O)c3ccccc3)CC2)c2ccccc12 | 2 | 67 | –
CC(=O)c1cn(CCCN2CCC(Oc3ccc(Cl)cc3)CC2)c2c(Cl)cccc12 | 2 | 107 | –
CCCOC1CCN(CC(C)Cn2c(=O)sc3ccccc32)CC1 (stereo not shown) | 2.51 | 71 | –
COc1cccc2c(C(C)=O)cn(CCCN3CCC(N(C)C(C)=O)C3)c12 (stereo not shown) | 2.51 | 60 | –
CCC(=O)c1cn(CCCN2C3CCC2CC(OCC2CC2)C3)c2ccccc12 (stereo not shown) | 2.51 | 120 | –
CC(=O)c1cn(CC(C)CN2CCC(c3nc4ccccc4s3)CC2)c2ccccc12 (stereo not shown) | 2.51 | 78 | –
CC(=O)c1cn(CCCN2CCC(Oc3ccc(F)cc3)CC2)c2cc(Br)ccc12 | 2.51 | 64 | –
CCC(=O)c1cn(CCCN2CCN(C(C)c3ccccc3)CC2)c2ccccc12 (stereo not shown) | 2.51 | 57 | –
CC(=O)c1cn(CCN2C3CCC2CC(O)(c2ccc(F)cc2)C3)c2ccccc12 (stereo not shown) | 2.51 | -11 | –
CC(=O)CCc1cn(CCCN2CCC(c3nc4ccccc4s3)CC2)c2ccccc12 | 2.51 | 84 | –
COc1ccc2[nH]c3c(c2c1)CCN(CCCn1cc(C(=O)C(F)(F)F)c2ccccc21)C3 | 2.51 | 106 | –
CC(=O)c1cn(CCCCN2C3CCC2CC(Oc2ccc(Cl)cc2)C3)c2ccccc12 (stereo not shown) | 3.16 | 119 | –
CC(=O)c1cn(CC(O)CN2CCC(Oc3ccccc3Cl)CC2)c2ccccc12 (stereo not shown) | 3.16 | 69 | –

Structure (SMILES) | IC50 [µM] | Emax [1] [%] | Emax [%]
CCCCC1CCN(CCCn2cc(C(C)=O)c3ccc(Br)cc32)CC1 | 3.16 | 93 | –
CC(=O)c1cn(CC(O)CN2CCC(Oc3ccc(Cl)cc3)CC2)c2ccccc12 (stereo not shown) | 3.16 | 73 | –
CC(=O)CCc1cn(CCCN2C3CCC2CC(OCC2CC2)C3)c2ccccc12 (stereo not shown) | 3.16 | 103 | –
COc1ccc2c(C(C)=O)cn(CCCN3CCC(C(C)c4ccccc4)CC3)c2c1 (stereo not shown) | 3.16 | 73 | –
O=C(c1cn(CCCN2CCC(O)(Cc3ccccc3)CC2)c2ccccc12)C(F)(F)F | 3.98 | 111 | –
CC(=O)c1cn(CC(C)CN2CCC(Cc3ccccc3)CC2)c2ccccc12 (stereo not shown) | 3.98 | 121 | –
CC(=O)c1cn(CCCCN2CCC(Cc3ccccc3)CC2)c2ccccc12 | 3.98 | 86 | –
COc1ccccc1C1CCN(CCCn2cc(CCC(C)=O)c3ccccc32)CC1 | 5.01 | 78 | –
CC(=O)c1cn(CCCN2CCC(Oc3ccccc3Cl)CC2)c2cc(Br)ccc12 | 5.01 | 67 | –
CC(=O)c1cn(CCCN2CCC(C(=O)c3ccccc3)CC2)c2ccccc12 | 5.01 | 64 | –
O=C(c1cn(CCCN2CCC(Cc3ccccc3)CC2)c2ccccc12)C(F)(F)F | 6.31 | 112 | –
CC(=O)c1cn(CC(O)CN2CCC(C(=O)c3ccccc3)CC2)c2ccccc12 (stereo not shown) | 6.31 | 26 | –
CC(=O)c1cn(CCCNC2Cc3ccccc3C2)c2c(Cl)cccc12 | 6.31 | 96 | –
CCOC(=O)C1CCN(CCCn2cc(C(=O)CC)c3ccccc32)CC1 | 6.31 | 39 | –
COc1cccc2c(C(C)=O)cn(CCCN3CCC(S(=O)(=O)c4ccc(Cl)cc4)CC3)c12 | 10 | 71 | –
CC(=O)c1cn(CCCN2C3CCC2CC(Oc2ccc(Cl)cc2)C3)c2cc(Br)ccc12 (stereo not shown) | 10 | 74 | –
CC(=O)c1cn(CCCN2CCC(C(=O)c3ccccc3)CC2)c2ccc(Br)cc12 | 10 | 60 | –
CCCOC1CCN(CCCn2cc(CCC(C)=O)c3ccccc32)CC1 | 15.8 | 75 | –
CCC(=O)c1cn(CCCN2CCC(C(=O)c3ccccc3)CC2)c2ccccc12 | 15.8 | 53 | –
COc1ccccc1C1CCN(CC(C)Cn2cc(C(C)=O)c3ccccc32)CC1 (stereo not shown) | 15.8 | 64 | –
CC(=O)c1cn(CCCN2CCC(Oc3ccccc3Cl)CC2)c2ccc(Br)cc12 | 15.8 | 74 | –
CC(=O)c1cn(CCCN2CCC(c3nc(-c4cccnc4)no3)CC2)c2ncccc12 | 20 | 55 | –

Structure (SMILES) | IC50 [µM] | Emax [1] [%] | Emax [%]
CCCOC1CCN(CC(O)Cn2cc(C(C)=O)c3ccccc32)CC1 (stereo not shown) | 31.6 | 18 | –
COc1ccc2c(c1)c(C(C)=O)cn2CCCN1C2CCC1CC(OCC1CC1)C2 (stereo not shown) | 31.6 | 74 | –
O=C(c1cn(CCCN2C3CCC2CC(O)(c2ccc(F)cc2)C3)c2ccccc12)C(F)(F)F (stereo not shown) | 251 | 58 | –
CC(=O)c1cn(CCCN2CCC(C(=O)c3ccccc3)CC2)c2c(Cl)cccc12 | 1580 | 92 | –
COc1cccc2c(C#N)cn(CCCN3CCC(c4nc(-c5ccncc5)no4)CC3)c12 | – | 40 | –
CC(=O)c1c(C)n(CCCN2CCCC(Oc3ccc(Cl)cc3)C2)c2c(Br)cccc12 (stereo not shown) | – | – | 24
CC(=O)c1c(C)n(CCCN2CCCC(Cc3ccccc3Cl)C2)c2c(Br)cccc12 (stereo not shown) | – | – | 5
CC(=O)c1c(C)n(CCCN2CCC(Cc3ccccc3Cl)C2)c2c(Br)cccc12 (stereo not shown) | – | – | 38
COc1cccc2c(C(C)=O)cn(CC(C)CN3CCCC(Oc4ccc(Cl)cc4)C3)c12 (stereo not shown) | – | – | -1
COc1cccc2c(C(C)=O)cn(CC(C)CN3C4CCC3CC(Oc3ccc(F)cc3)C4)c12 (stereo not shown) | – | – | 44
COc1cccc2c(C(C)=O)cn(CC(C)CN3CCC(CCOc4ccc(Cl)cc4)CC3)c12 (stereo not shown) | – | – | 22
O=C(c1cn(CCCN2CCCC(Cc3ccccc3Cl)C2)c2ncccc12)C(F)(F)F (stereo not shown) | – | 27 | –
O=C(c1cn(CCCN2CCC(Oc3cccc(Cl)c3)CC2)c2ncccc12)C(F)(F)F | – | 23 | –
CC(CN1C2CCC1CC(Oc1ccc(F)cc1)C2)Cn1cc(C(=O)C(F)(F)F)c2cccnc21 (stereo not shown) | – | 35 | –
CC(=O)c1cn(CCCN2CCCC(Oc3ccc(Cl)cc3)C2)c2ncccc12 (stereo not shown) | – | 53 | –
COc1cccc2c(C#N)cn(CCCN3CCCC(Oc4ccc(Cl)cc4)C3)c12 (stereo not shown) | – | 48 | –
CC(=O)c1cn(CCCN2CCCC(Oc3ccc(Cl)cc3)C2)c2c(C#N)cccc12 (stereo not shown) | – | – | 31
CC(=O)c1cn(CCCN2C3CCC2CC(CC(=O)c2ccc(Cl)cc2)C3)c2c(C#N)cccc12 (stereo not shown) | – | – | 31
CCCCC1CCN(CCn2cc(C(C)=O)c3ccccc32)CC1 | – | – | 23
COc1ccc2[nH]c3c(c2c1)CCN(CC(C)Cn1c(=O)sc2ccccc21)C3 (stereo not shown) | – | -10 | –
COc1ccc2[nH]c3c(c2c1)CCN(CCCCn1cc(C(C)=O)c2ccccc21)C3 | – | 9 | –
CC(=O)c1cn(CC(C)CN2CCC(C(=O)c3ccccc3)CC2)c2ccccc12 (stereo not shown) | – | – | 2

Structure (SMILES) | IC50 [µM] | Emax [1] [%] | Emax [%]
CC(=O)c1cn(CCCCN2CCC(C(=O)c3ccccc3)CC2)c2ccccc12 | – | – | 38
COc1cccc2c(C#N)cn(CCCN3CCN(CCOc4ccc(Cl)c5ccccc45)CC3)c12 | – | 21 | –
CC(CN1CCC2(CC1)CC(=O)c1ccccc1O2)Cn1cc(C(=O)C(F)(F)F)c2cccnc21 (stereo not shown) | – | 26 | –
O=C(c1cn(CCCN2CCCC(Oc3ccc(Cl)cc3)C2)c2ncccc12)C(F)(F)F (stereo not shown) | – | 2 | –
O=C(c1cn(CCCN2CCC(CCOc3ccc(Cl)cc3)CC2)c2ncccc12)C(F)(F)F | – | 37 | –
COc1cccc2c(C#N)cn(CCCN3CCC4(CC3)CC(=O)c3ccccc3O4)c12 | – | 41 | –
COc1cccc2c(C#N)cn(CCCN3CCC(CCOc4ccc(Cl)cc4)CC3)c12 | – | -3 | –
O=C(c1cn(CCCNC2Cc3ccccc3C2)c2ncccc12)C(F)(F)F | – | -3 | –
O=C(c1cn(CCCN2CCN(c3ncc(C(F)(F)F)cc3Cl)CC2)c2ncccc12)C(F)(F)F | – | 27 | –
O=C(c1cn(CCCN2CCN(CCOc3ccc(Cl)cc3)CC2)c2ncccc12)C(F)(F)F | – | 38 | –
O=C(c1cn(CCCNCCOc2ccccc2)c2ncccc12)C(F)(F)F | – | 26 | –
O=C(c1cn(CCCN2CCCN(CCc3ccccc3)CC2)c2ncccc12)C(F)(F)F | – | 51 | –
O=C(c1cn(CCCN2CCC(c3nc(-c4ccncc4)no3)CC2)c2ncccc12)C(F)(F)F | – | 31 | –
O=C(c1cn(CCCN2CCC(c3nc(-c4cccnc4)no3)CC2)c2ncccc12)C(F)(F)F | – | 72 | –
CC(=O)c1cn(CCCN2CCN(CCOc3ccc(Cl)cc3)CC2)c2ncccc12 | – | 62 | –
CC(=O)c1cn(CCCN2CCC(c3nc(-c4ccncc4)no3)CC2)c2ncccc12 | – | 88 | –
COc1cccc2c(C#N)cn(CCCN3CCN(CCOc4ccc(Cl)cc4)CC3)c12 | – | -23 | –
COc1cccc2c(C#N)cn(CCCN3CCN(CCOc4ccccc4)CC3)c12 | – | 42 | –
COc1cccc2c(C#N)cn(CCCN3CCN(Cc4ccc(Cl)cc4Cl)CC3)c12 | – | 30 | –
COc1cccc2c(C#N)cn(CCCN3CCC(c4nc(-c5cccnc5)no4)CC3)c12 | – | 23 | –
O=C(c1cn(CCCN2CCN(CCOc3ccccc3)CC2)c2ncccc12)C(F)(F)F | – | 27 | –
CC(=O)c1cn(CCCN2C3CCC2CC(CC(=O)c2ccc(Cl)cc2)C3)c2ncccc12 (stereo not shown) | – | 11 | –
